From PubChem BioAssay AID1982 (Sanford-Burnham Center for Chemical Genomics, 2009)
Active and inactive are the calls of the source. The rule behind the calls is not given here.

Tests used:
Experiment in all cases: kinase panel binding selectivity, selectivity assay, biochemical, KINOMEscan (AID 1982)
[1] = molecular target: MAP/microtubule affinity-regulating kinase 3 (Homo sapiens) (UniProt P27448); details: KINOMEscan 353-kinase binding panel, qPCR; MARK3; at 10 µM; active compounds read low
[2] = molecular target: Protein kinase C delta type (Homo sapiens) (UniProt Q05655); details: KINOMEscan 353-kinase binding panel, qPCR; PRKCD; at 10 µM; active compounds read low
[3] = molecular target: Serine/threonine-protein kinase Nek2 (Homo sapiens) (UniProt P51955); details: KINOMEscan 353-kinase binding panel, qPCR, at 10 µM, active compounds read low
[4] = test system: RPS6KA1(Kin.Dom.1); details: KINOMEscan 353-kinase binding panel, qPCR, at 10 µM, active compounds read low
[5] = molecular target: Mitogen-activated protein kinase kinase kinase kinase 4 (Homo sapiens) (UniProt O95819); details: KINOMEscan 353-kinase binding panel, qPCR; MAP4K4; at 10 µM; active compounds read low
[6] = test system: NEK7; details: KINOMEscan 353-kinase binding panel, qPCR, at 10 µM, active compounds read low
[7] = test system: RIPK1; details: KINOMEscan 353-kinase binding panel, qPCR, at 10 µM, active compounds read low
[8] = test system: CSNK2A2; details: KINOMEscan 353-kinase binding panel, qPCR, at 10 µM, active compounds read low
[9] = molecular target: Tyrosine-protein kinase ITK/TSK (Homo sapiens) (UniProt Q08881); details: KINOMEscan 353-kinase binding panel, qPCR, at 10 µM, active compounds read low
[10] = test system: EPHA8; details: KINOMEscan 353-kinase binding panel, qPCR, at 10 µM, active compounds read low
[11] = molecular target: NT-3 growth factor receptor (Homo sapiens) (UniProt Q16288); details: KINOMEscan 353-kinase binding panel, qPCR; TRKC; at 10 µM; active compounds read low
[12] = molecular target: Mitogen-activated protein kinase 9 (Homo sapiens) (UniProt P45984); details: KINOMEscan 353-kinase binding panel, qPCR; JNK2; at 10 µM; active compounds read low
[13] = molecular target: Glycogen synthase kinase-3 beta (Homo sapiens) (UniProt P49841); details: KINOMEscan 353-kinase binding panel, qPCR; GSK3B; at 10 µM; active compounds read low
[14] = test system: STK35; details: KINOMEscan 353-kinase binding panel, qPCR, at 10 µM, active compounds read low
[15] = test system: MEK4; details: KINOMEscan 353-kinase binding panel, qPCR, at 10 µM, active compounds read low
[16] = molecular target: Focal adhesion kinase 1 (Homo sapiens) (UniProt Q05397); details: KINOMEscan 353-kinase binding panel, qPCR; PTK2; at 10 µM; active compounds read low
[17] = test system: MYO3A; details: KINOMEscan 353-kinase binding panel, qPCR, at 10 µM, active compounds read low
[18] = test system: DMPK2; details: KINOMEscan 353-kinase binding panel, qPCR, at 10 µM, active compounds read low
[19] = molecular target: Serine/threonine-protein kinase SIK2 (Homo sapiens) (UniProt Q9H0K1); details: KINOMEscan 353-kinase binding panel, qPCR; SNF1LK2; at 10 µM; active compounds read low
[20] = test system: ULK2; details: KINOMEscan 353-kinase binding panel, qPCR, at 10 µM, active compounds read low
[21] = molecular target: Protein kinase C theta type (Homo sapiens) (UniProt Q04759); details: KINOMEscan 353-kinase binding panel, qPCR; PRKCQ; at 10 µM; active compounds read low
[22] = test system: PRKR; details: KINOMEscan 353-kinase binding panel, qPCR, at 10 µM, active compounds read low
[23] = test system: PRKCH; details: KINOMEscan 353-kinase binding panel, qPCR, at 10 µM, active compounds read low
[24] = molecular target: Rho-associated protein kinase 2 (Homo sapiens) (UniProt O75116); details: KINOMEscan 353-kinase binding panel, qPCR; ROCK2; at 10 µM; active compounds read low
[25] = test system: FGFR4; details: KINOMEscan 353-kinase binding panel, qPCR, at 10 µM, active compounds read low
[26] = molecular target: Aurora kinase A (Homo sapiens) (UniProt O14965); details: KINOMEscan 353-kinase binding panel, qPCR; AURKA; at 10 µM; active compounds read low
[27] = molecular target: Serine/threonine-protein kinase pim-1 (Homo sapiens) (UniProt P11309); details: KINOMEscan 353-kinase binding panel, qPCR; PIM1; at 10 µM; active compounds read low
[28] = test system: ERK8; details: KINOMEscan 353-kinase binding panel, qPCR, at 10 µM, active compounds read low
[29] = test system: TNIK; details: KINOMEscan 353-kinase binding panel, qPCR, at 10 µM, active compounds read low
[30] = molecular target: cAMP-dependent protein kinase catalytic subunit PRKX (Homo sapiens) (UniProt P51817); details: KINOMEscan 353-kinase binding panel, qPCR, at 10 µM, active compounds read low
[31] = molecular target: RAC-beta serine/threonine-protein kinase (Homo sapiens) (UniProt P31751); details: KINOMEscan 353-kinase binding panel, qPCR; AKT2; at 10 µM; active compounds read low
[32] = molecular target: Serine/threonine-protein kinase TAO1 (Homo sapiens) (UniProt Q7L7X3); details: KINOMEscan 353-kinase binding panel, qPCR; TAOK1; at 10 µM; active compounds read low

Measured: percent of control binding

Chain of Mitogen-activated protein kinase 9 (Homo sapiens) (P45984 whole entry, looked up): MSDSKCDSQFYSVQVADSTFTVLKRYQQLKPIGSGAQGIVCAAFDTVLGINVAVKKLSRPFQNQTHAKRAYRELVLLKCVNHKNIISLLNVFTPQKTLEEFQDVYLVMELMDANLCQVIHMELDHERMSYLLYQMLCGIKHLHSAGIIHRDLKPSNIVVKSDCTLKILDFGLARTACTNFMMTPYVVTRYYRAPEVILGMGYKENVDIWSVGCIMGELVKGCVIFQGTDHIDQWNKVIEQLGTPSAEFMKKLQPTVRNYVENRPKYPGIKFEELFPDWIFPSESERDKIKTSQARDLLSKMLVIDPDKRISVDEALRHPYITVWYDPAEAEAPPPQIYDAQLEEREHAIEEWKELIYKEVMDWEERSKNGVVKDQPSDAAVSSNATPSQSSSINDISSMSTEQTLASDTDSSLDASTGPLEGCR
Chain of Serine/threonine-protein kinase pim-1 (Homo sapiens) (P11309 whole entry, looked up): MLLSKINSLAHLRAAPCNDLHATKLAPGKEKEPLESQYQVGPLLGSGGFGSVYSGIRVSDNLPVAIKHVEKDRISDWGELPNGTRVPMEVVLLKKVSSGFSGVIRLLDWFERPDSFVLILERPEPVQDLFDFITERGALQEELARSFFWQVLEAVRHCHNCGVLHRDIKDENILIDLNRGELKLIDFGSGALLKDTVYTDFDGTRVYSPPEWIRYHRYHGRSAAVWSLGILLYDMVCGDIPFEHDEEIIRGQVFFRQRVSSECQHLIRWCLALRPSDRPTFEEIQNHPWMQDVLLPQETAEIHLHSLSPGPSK
Chain of RAC-beta serine/threonine-protein kinase (Homo sapiens) (P31751 whole entry, looked up): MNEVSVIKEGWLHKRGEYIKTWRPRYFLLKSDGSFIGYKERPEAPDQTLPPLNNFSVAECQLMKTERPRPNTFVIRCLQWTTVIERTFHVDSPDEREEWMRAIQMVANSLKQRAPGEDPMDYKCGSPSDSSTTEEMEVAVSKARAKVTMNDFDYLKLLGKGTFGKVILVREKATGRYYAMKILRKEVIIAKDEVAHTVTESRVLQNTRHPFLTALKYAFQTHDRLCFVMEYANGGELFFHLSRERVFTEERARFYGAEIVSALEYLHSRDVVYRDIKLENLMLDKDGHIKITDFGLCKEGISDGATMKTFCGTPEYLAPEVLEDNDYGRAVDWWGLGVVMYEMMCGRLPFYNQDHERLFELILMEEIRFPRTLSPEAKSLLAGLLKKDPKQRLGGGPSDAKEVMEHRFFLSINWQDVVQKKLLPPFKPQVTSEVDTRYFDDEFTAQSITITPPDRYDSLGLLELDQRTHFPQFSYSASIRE
Chain of Aurora kinase A (Homo sapiens) (O14965 whole entry, looked up): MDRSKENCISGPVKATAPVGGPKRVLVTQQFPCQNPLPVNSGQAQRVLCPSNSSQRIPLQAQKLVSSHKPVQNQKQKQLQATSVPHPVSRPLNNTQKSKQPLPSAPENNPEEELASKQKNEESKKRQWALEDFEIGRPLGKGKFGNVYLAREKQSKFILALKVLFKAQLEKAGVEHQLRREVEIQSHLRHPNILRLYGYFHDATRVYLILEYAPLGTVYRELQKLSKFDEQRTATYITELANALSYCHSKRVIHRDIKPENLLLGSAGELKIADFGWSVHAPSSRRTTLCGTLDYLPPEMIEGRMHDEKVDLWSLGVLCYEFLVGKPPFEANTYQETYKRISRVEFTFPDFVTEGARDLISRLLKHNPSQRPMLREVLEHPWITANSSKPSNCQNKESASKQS
Chain of Glycogen synthase kinase-3 beta (Homo sapiens) (P49841 whole entry, looked up): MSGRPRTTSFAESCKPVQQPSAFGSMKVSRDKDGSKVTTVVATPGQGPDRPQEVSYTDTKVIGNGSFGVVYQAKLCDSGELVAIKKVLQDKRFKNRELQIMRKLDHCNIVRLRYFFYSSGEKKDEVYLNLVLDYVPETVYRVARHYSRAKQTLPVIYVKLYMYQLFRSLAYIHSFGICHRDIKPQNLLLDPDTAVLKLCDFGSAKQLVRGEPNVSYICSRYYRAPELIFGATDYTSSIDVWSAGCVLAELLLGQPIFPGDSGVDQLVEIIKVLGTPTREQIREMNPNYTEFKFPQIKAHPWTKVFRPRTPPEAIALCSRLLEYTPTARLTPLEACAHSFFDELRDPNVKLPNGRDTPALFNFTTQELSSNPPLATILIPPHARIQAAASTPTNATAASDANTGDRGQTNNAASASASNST
Chain of Serine/threonine-protein kinase Nek2 (Homo sapiens) (P51955 whole entry, looked up): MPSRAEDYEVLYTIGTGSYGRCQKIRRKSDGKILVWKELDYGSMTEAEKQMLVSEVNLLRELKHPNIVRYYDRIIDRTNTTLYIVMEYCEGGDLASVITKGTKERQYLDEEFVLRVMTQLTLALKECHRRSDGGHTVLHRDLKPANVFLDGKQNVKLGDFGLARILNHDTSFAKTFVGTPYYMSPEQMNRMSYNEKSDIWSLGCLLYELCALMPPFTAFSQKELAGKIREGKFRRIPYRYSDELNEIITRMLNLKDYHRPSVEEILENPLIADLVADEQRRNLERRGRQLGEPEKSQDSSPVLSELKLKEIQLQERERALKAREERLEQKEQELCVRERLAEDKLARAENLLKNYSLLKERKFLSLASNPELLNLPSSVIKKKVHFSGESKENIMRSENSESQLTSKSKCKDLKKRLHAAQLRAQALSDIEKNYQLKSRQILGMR
Chain of Rho-associated protein kinase 2 (Homo sapiens) (O75116 whole entry, looked up): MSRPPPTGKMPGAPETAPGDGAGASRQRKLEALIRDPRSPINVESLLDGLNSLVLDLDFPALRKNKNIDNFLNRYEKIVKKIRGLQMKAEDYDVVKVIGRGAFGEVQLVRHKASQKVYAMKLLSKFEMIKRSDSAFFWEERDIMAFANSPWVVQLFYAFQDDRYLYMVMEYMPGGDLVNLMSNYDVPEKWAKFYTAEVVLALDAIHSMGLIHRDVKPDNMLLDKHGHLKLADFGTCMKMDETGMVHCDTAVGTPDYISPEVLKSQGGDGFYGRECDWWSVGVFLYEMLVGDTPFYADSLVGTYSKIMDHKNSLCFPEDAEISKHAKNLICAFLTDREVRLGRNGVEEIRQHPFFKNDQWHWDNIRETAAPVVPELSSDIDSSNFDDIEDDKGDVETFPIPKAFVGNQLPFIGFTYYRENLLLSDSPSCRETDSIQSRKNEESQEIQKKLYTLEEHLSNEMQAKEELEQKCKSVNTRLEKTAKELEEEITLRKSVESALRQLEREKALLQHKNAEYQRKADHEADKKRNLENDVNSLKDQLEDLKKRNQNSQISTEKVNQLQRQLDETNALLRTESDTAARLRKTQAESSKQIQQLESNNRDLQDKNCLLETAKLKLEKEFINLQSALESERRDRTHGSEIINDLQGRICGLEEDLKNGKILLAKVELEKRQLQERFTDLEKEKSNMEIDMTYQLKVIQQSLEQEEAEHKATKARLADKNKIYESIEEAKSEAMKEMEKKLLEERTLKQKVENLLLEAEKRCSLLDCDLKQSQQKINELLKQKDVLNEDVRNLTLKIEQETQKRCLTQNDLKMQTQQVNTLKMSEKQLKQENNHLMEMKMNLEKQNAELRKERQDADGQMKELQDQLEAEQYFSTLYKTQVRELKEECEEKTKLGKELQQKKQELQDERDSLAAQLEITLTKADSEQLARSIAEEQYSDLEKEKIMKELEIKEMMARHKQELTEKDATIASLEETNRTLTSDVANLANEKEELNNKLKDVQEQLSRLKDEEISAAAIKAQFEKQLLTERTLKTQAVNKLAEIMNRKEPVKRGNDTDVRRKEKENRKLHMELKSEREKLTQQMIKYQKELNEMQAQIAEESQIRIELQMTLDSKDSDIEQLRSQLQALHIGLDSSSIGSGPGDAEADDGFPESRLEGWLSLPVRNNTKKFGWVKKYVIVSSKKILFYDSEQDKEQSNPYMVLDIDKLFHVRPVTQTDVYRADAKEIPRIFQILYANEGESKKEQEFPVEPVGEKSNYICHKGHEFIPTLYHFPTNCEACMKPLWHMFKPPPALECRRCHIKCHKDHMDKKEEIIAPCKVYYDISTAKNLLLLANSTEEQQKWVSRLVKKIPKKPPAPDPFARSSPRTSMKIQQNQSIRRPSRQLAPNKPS
Chain of MAP/microtubule affinity-regulating kinase 3 (Homo sapiens) (P27448 whole entry, looked up): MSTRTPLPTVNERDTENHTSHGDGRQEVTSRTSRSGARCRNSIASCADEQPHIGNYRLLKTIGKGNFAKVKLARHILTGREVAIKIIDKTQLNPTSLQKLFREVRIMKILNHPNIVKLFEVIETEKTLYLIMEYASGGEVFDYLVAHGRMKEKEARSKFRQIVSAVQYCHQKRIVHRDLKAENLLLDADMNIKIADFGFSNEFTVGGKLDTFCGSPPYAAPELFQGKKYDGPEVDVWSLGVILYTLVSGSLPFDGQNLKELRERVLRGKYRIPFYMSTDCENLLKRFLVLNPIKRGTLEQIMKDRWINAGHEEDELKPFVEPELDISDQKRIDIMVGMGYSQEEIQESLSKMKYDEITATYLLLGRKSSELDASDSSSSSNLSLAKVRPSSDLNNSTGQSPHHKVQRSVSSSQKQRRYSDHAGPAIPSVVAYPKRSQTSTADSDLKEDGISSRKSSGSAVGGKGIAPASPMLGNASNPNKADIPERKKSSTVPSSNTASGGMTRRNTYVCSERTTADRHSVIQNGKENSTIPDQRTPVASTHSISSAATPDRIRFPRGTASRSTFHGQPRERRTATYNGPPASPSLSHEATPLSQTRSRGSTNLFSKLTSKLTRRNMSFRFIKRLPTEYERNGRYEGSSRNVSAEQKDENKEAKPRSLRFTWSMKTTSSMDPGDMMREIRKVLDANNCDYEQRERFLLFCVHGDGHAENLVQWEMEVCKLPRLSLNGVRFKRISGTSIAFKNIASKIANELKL
Chain of cAMP-dependent protein kinase catalytic subunit PRKX (Homo sapiens) (P51817 whole entry, looked up): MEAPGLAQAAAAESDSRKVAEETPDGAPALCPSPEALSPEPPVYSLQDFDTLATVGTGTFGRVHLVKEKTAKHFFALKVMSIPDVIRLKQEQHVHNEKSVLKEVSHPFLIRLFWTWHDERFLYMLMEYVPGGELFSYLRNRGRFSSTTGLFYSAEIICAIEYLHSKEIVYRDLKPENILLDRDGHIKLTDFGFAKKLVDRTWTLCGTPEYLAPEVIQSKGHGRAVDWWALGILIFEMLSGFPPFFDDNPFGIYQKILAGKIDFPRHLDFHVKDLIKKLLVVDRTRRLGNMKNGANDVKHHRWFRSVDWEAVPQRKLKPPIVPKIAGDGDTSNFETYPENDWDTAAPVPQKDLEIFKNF

Cc1cc2nc(NCCCO)n(CC(=O)c3cc(C(C)(C)C)c(O)c(C(C)(C)C)c3)c2cc1C
inactive: [1] 100% | [2] 100% | [3] 84% | [4] 59% | [5] 66% | [6] 97% | [7] 100% | [8] 98% | [9] 100% | [10] 88% | [11] 100% | [12] 100% | [13] 100% | [14] 100% | [15] 79% | [16] 100% | [17] 89% | [18] 72% | [19] 100% | [20] 84% | [21] 100% | [22] 98% | [23] 100% | [24] 59% | [25] 81% | [26] 96% | [27] 100% | [28] 100% | [29] 100% | [30] 100% | [31] 85% | [32] 90%
